According to the supplement of paper PMC10307832:

How the values were obtained:
Assay in all cases: relative viability (nuclei count vs DMSO), 5 days (fraction); higher = more cells survive
NCI-H1666 = tested on: NCI-H1666
How it was run: (§1)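 Cells from lung cancer lines were seeded into 1536-well plates and, one day later, dosed by pin tool. Treatments were either a single drug or a fixed dose of an anchor drug with five library-drug doses (not always all listed) in √10 steps. After 5 days, nuclei were stained in a one-step fixation (final 0.05% Triton X-100, 1% formaldehyde, 1 ug/ml Hoechst) and counted on 4× images, and relative viability is the treated-to-vehicle nuclei ratio, as the median of duplicate plates.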

NCI-H1915 = tested on: NCI-H1915
How it was run: as §1

NCI-H460 = tested on: NCI-H460
How it was run: as §1

UMC-11 = tested on: UMC-11
How it was run: as §1

LC-2-ad = tested on: LC-2-ad
How it was run: as §1

HCC-78 = tested on: HCC-78
How it was run: as §1

NCI-H1792 = tested on: NCI-H1792
How it was run: as §1

NCI-H358 = tested on: NCI-H358
How it was run: as §1

NCI-H2085 = tested on: NCI-H2085
How it was run: as §1

HOP-62 = tested on: HOP-62
How it was run: as §1

LU99A = tested on: LU99A
How it was run: as §1

A-427 = tested on: A-427
How it was run: as §1

NCI-H1793 = tested on: NCI-H1793
How it was run: as §1

EPLC-272H = tested on: EPLC-272H
How it was run: as §1

COR-L 105 = tested on: COR-L 105
How it was run: as §1

NCI-H1944 = tested on: NCI-H1944
How it was run: as §1

NCI-H2009 = tested on: NCI-H2009
How it was run: as §1

LXF-289 = tested on: LXF-289
How it was run: as §1

SK-LU-1 = tested on: SK-LU-1
How it was run: as §1

HCC-366 = tested on: HCC-366
How it was run: as §1

O=c1cc(N2CCOCC2)oc2c(-c3cccc4c3sc3ccccc34)cccc12 + C[C@]1(O)C[C@@H](c2nc(-c3ccc4ccc(-c5ccccc5)nc4c3)c3c(N)nccn32)C1 [Linsitinib] (partner 1 µM) showed a relative viability (NCI-H1666; first compound 0.01 µM) of 0.735, a relative viability (NCI-H1666; first compound 0.03162 µM) of 0.803 and a relative viability (NCI-H1666; first compound 0.1 µM) of 0.972. It also gave a relative viability (NCI-H1666; first compound 0.3162 µM) of 0.776, a relative viability (NCI-H1666; first compound 1 µM) of 0.636 and a relative viability (NCI-H1915; first compound 0.01 µM) of 1.04. It also gave a relative viability (NCI-H1915; first compound 0.03162 µM) of 1.15, a relative viability (NCI-H1915; first compound 0.1 µM) of 0.636 and a relative viability (NCI-H1915; first compound 0.3162 µM) of 1.1. It also gave a relative viability (NCI-H1915; first compound 1 µM) of 1.08, a relative viability (NCI-H460; first compound 0.01 µM) of 0.764 and a relative viability (NCI-H460; first compound 0.03162 µM) of 0.708. It also gave a relative viability (NCI-H460; first compound 0.1 µM) of 0.739, a relative viability (NCI-H460; first compound 0.3162 µM) of 0.822 and a relative viability (NCI-H460; first compound 1 µM) of 0.78. For the same compound, the relative viability (UMC-11; first compound 0.01 µM) was 1.07, the relative viability (UMC-11; first compound 0.03162 µM) was 1.03 and the relative viability (UMC-11; first compound 0.1 µM) was 1.01. For the same compound, the relative viability (UMC-11; first compound 0.3162 µM) was 1.02, the relative viability (UMC-11; first compound 1 µM) was 1.06 and the relative viability (LC-2-ad; first compound 0.01 µM) was 0.975. It also gave a relative viability (LC-2-ad; first compound 0.1 µM) of 0.801, a relative viability (LC-2-ad; first compound 0.3162 µM) of 0.714 and a relative viability (LC-2-ad; first compound 1 µM) of 0.781. The relative viability (HCC-78; first compound 0.01 µM) was 0.542, the relative viability (HCC-78; first compound 0.03162 µM) was 0.525 and the relative viability (HCC-78; first compound 0.1 µM) was 0.559. It also gave a relative viability (HCC-78; first compound 0.3162 µM) of 0.51, a relative viability (HCC-78; first compound 1 µM) of 0.53 and a relative viability (NCI-H1792; first compound 0.01 µM) of 0.514. It also gave a relative viability (NCI-H1792; first compound 0.03162 µM) of 0.513, a relative viability (NCI-H1792; first compound 0.1 µM) of 0.564 and a relative viability (NCI-H1792; first compound 0.3162 µM) of 0.502. It also gave a relative viability (NCI-H1792; first compound 1 µM) of 0.574, a relative viability (NCI-H358; first compound 0.01 µM) of 0.631 and a relative viability (NCI-H358; first compound 0.03162 µM) of 0.781. For the same compound, the relative viability (NCI-H358; first compound 0.1 µM) was 0.731, the relative viability (NCI-H358; first compound 0.3162 µM) was 0.812 and the relative viability (NCI-H358; first compound 1 µM) was 0.736. It also gave a relative viability (NCI-H2085; first compound 0.01 µM) of 0.983, a relative viability (NCI-H2085; first compound 0.03162 µM) of 0.914 and a relative viability (NCI-H2085; first compound 0.1 µM) of 0.933. It also gave a relative viability (NCI-H2085; first compound 0.3162 µM) of 0.889, a relative viability (NCI-H2085; first compound 1 µM) of 0.821 and a relative viability (HOP-62; first compound 0.01 µM) of 0.991. The relative viability (HOP-62; first compound 0.03162 µM) was 1.12, the relative viability (HOP-62; first compound 0.1 µM) was 0.909 and the relative viability (HOP-62; first compound 0.3162 µM) was 0.933. The relative viability (HOP-62; first compound 1 µM) was 0.989, the relative viability (LU99A; first compound 0.01 µM) was 0.524 and the relative viability (LU99A; first compound 0.03162 µM) was 0.628. The relative viability (LU99A; first compound 0.1 µM) was 0.589, the relative viability (LU99A; first compound 0.3162 µM) was 0.518 and the relative viability (LU99A; first compound 1 µM) was 0.627. For the same compound, the relative viability (A-427; first compound 0.01 µM) was 1.13, the relative viability (A-427; first compound 0.03162 µM) was 1.12 and the relative viability (A-427; first compound 0.1 µM) was 1.23. It also gave a relative viability (A-427; first compound 0.3162 µM) of 1.12, a relative viability (A-427; first compound 1 µM) of 1.11 and a relative viability (NCI-H1793; first compound 0.01 µM) of 0.809. For the same compound, the relative viability (NCI-H1793; first compound 0.03162 µM) was 0.872, the relative viability (NCI-H1793; first compound 0.1 µM) was 0.517 and the relative viability (NCI-H1793; first compound 0.3162 µM) was 0.813. The relative viability (NCI-H1793; first compound 1 µM) was 0.68, the relative viability (EPLC-272H; first compound 0.01 µM) was 0.987 and the relative viability (EPLC-272H; first compound 0.03162 µM) was 1.17. The relative viability (EPLC-272H; first compound 0.3162 µM) was 1.31, the relative viability (EPLC-272H; first compound 1 µM) was 1.1 and the relative viability (COR-L 105; first compound 0.01 µM) was 0.858. For the same compound, the relative viability (COR-L 105; first compound 0.03162 µM) was 0.792, the relative viability (COR-L 105; first compound 0.1 µM) was 0.851 and the relative viability (COR-L 105; first compound 0.3162 µM) was 0.773. It also gave a relative viability (COR-L 105; first compound 1 µM) of 0.895, a relative viability (NCI-H1944; first compound 0.01 µM) of 1.16 and a relative viability (NCI-H1944; first compound 0.03162 µM) of 1.19. It also gave a relative viability (NCI-H1944; first compound 0.1 µM) of 1.19, a relative viability (NCI-H1944; first compound 0.3162 µM) of 1.33 and a relative viability (NCI-H1944; first compound 1 µM) of 1.16. It also gave a relative viability (NCI-H2009; first compound 0.01 µM) of 1.16, a relative viability (NCI-H2009; first compound 0.03162 µM) of 1.17 and a relative viability (NCI-H2009; first compound 0.1 µM) of 1.19. For the same compound, the relative viability (NCI-H2009; first compound 0.3162 µM) was 1.17, the relative viability (NCI-H2009; first compound 1 µM) was 1.05 and the relative viability (LXF-289; first compound 0.01 µM) was 0.983. For the same compound, the relative viability (LXF-289; first compound 0.03162 µM) was 0.927, the relative viability (LXF-289; first compound 0.1 µM) was 0.978 and the relative viability (LXF-289; first compound 0.3162 µM) was 0.978. For the same compound, the relative viability (LXF-289; first compound 1 µM) was 0.897, the relative viability (SK-LU-1; first compound 0.03162 µM) was 1.25 and the relative viability (SK-LU-1; first compound 0.1 µM) was 1.12. It also gave a relative viability (SK-LU-1; first compound 0.3162 µM) of 1.19, a relative viability (SK-LU-1; first compound 1 µM) of 0.969 and a relative viability (HCC-366; first compound 0.01 µM) of 0.671. It also gave a relative viability (HCC-366; first compound 0.03162 µM) of 0.656, a relative viability (HCC-366; first compound 0.1 µM) of 0.797 and a relative viability (HCC-366; first compound 0.3162 µM) of 0.662. For the same compound, the relative viability (HCC-366; first compound 1 µM) was 0.625.
